ChEMBL document CHEMBL1143357, “Synthesis and biological activities of high affinity taxane-based fluorescent probes” (Bioorg Med Chem Lett, 2009)

Experiments:
A2780 [1] = conditions: Homo sapiens, A2780, 48 h
A2780 [2] = experiment: Resistant factor, ratio of IC50 for p-glycoprotein expressing drug-resistant human A2780AD cells to IC50 for human A2780 cells; type: functional
[3] = Induction of assembly of GTP-tubulin into microtubules assessed as critical concentration
A2780 [4] = experiment: cells; conditions: Homo sapiens, A2780, 48 h
Description: Cytotoxicity against human A2780 cells after 48 hrs by MTT assay

[5] = Displacement of non-fluorescent ligand from paclitaxel binding site of microtubule

Row | SMILES | IC50 (A2780 [1]) [nM] | Ratio IC50 (A2780 [2]) | Activity [3] [µM] | IC50 (A2780 [4]) [nM] | Ka [5] [×10⁸ /M]
1 | COc1cccc(C(=O)O[C@H]2[C@@H]3[C@]4(OC(C)=O)CO[C@@H]4C[C@H](OC(=O)[C@H](C)NC(=O)c4ccc(-c5c6cc(F)c(=O)cc-6oc6cc(O)c(F)cc56)c(C(=O)O)c4)[C@@]3(C)C(=O)[C@H](OC(C)=O)C3=C(C)[C@@H](OC(=O)[C@H](O)[C@@H](NC(=O)c4ccccc4)c4ccccc4)C[C@]2(O)C3(C)C)c1 | 7200 | 26.4 | 2.17 | 272 | 
2 | CC(=O)O[C@H]1C(=O)[C@]2(C)[C@@H](OC(=O)[C@H](C)NC(=O)c3ccc(-c4c5cc(F)c(=O)cc-5oc5cc(O)c(F)cc45)c(C(=O)O)c3)C[C@H]3OC[C@@]3(OC(C)=O)[C@H]2[C@H](OC(=O)c2ccccc2)[C@]2(O)C[C@H](OC(=O)[C@H](O)[C@@H](NC(=O)c3ccccc3)c3ccccc3)C(C)=C1C2(C)C [FLUTAX 2] | > 20000 | >25 | 3.22 | 800 | 
3 | CC(=O)O[C@H]1C(=O)[C@@]2(C)[C@H]([C@H](OC(=O)c3ccccc3)[C@]3(O)C[C@H](OC(=O)[C@H](O)[C@@H](NC(=O)c4ccccc4)c4ccccc4)C(C)=C1C3(C)C)[C@]1(OC(C)=O)CO[C@@H]1C[C@@H]2O [PACLITAXEL] |  |  | 4.23 | 1.3 | 
4 | C/C(=C\c1csc(C)n1)[C@@H]1C[C@@H]2O[C@]2(C)CCC[C@H](C)[C@H](O)[C@@H](C)C(=O)C(C)(C)[C@@H](O)CC(=O)O1 |  |  |  |  | 7.5
5 | C/C=C(\C)C(=O)N[C@@H](c1ccccc1)[C@@H](O)C(=O)O[C@H]1C[C@@]2(O)[C@@H](OC(=O)c3cccc(N=[N+]=[N-])c3)[C@@H]3[C@]4(OC(C)=O)CO[C@@H]4C[C@H](OC(=O)[C@H](C)NC(=O)c4ccc(-c5c6ccc(=O)cc-6oc6cc(O)ccc56)c(C(=O)O)c4)[C@@]3(C)C(=O)[C@H](OC(C)=O)C(=C1C)C2(C)C | > 20000 | >91 | 2.45 | 220 | 
6 | COc1cccc(C(=O)O[C@H]2[C@@H]3[C@]4(OC(C)=O)CO[C@@H]4C[C@H](OC(=O)[C@H](C)NC(=O)c4ccc(-c5c6ccc(=O)cc-6oc6cc(O)ccc56)c(C(=O)O)c4)[C@@]3(C)C(=O)[C@H](OC(C)=O)C3=C(C)[C@@H](OC(=O)[C@H](O)[C@@H](NC(=O)c4ccccc4)c4ccccc4)C[C@]2(O)C3(C)C)c1 | 716 | 36.7 | 2.26 | 19.5 | 
7 | CC(=O)O[C@H]1C(=O)[C@]2(C)[C@@H](OC(=O)[C@H](C)NC(=O)c3ccc(-c4c5ccc(=O)cc-5oc5cc(O)ccc45)c(C(=O)O)c3)C[C@H]3OC[C@@]3(OC(C)=O)[C@H]2[C@H](OC(=O)c2ccccc2)[C@]2(O)C[C@H](OC(=O)[C@H](O)[C@@H](NC(=O)c3ccccc3)c3ccccc3)C(C)=C1C2(C)C [FLUTAX 1] | > 20000 | >78 | 3.84 | 256 | 
8 | CC(=O)O[C@@]12CO[C@@H]1C[C@H](O)[C@@]1(C)C(=O)[C@H](O)C3=C(C)[C@@H](OC(=O)[C@H](O)[C@@H](NC(=O)OC(C)(C)C)c4ccccc4)C[C@@](O)([C@@H](OC(=O)c4ccccc4)[C@H]21)C3(C)C.O.O.O [DOCETAXEL] | 290 | 483 | 2.5 | 0.6 | 
